Measurements reported in the supplement of paper PMC11208160.

Assay: recombinant UMI read abundance after kanamycin selection (control-corrected) (log10(CPM+1)); higher = more efficient recombination; extreme values may be limits of the assay; sequences stand for … in AGTGCAGAGAAAATCGGCCAGTTTTCTCTGCCTGCAGTCCGCATGCCGTGGGACCCCTTGGGTTCTAACCTGTTGCCTAGATTTATGCAGCGGACTGCCTTTCTCCCAAAGTGATAAACCGG…AGGTTGGTTTCACT; site = the 11-nt donor
Summary of the method: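 Pooled Escherichia coli screen of donor and donor-binding-loop pairs for the IS621 bridge recombinase. Each pair sits with a 12-nt UMI on a plasmid carrying a promoterless kanamycin gene. The library was co-electroporated with a target plasmid encoding a fixed target and T7-inducible recombinase, then plated with IPTG (0.07 mM) plus kanamycin, or unselected, each in two replicates. Recombinant UMIs were PCR-amplified across the donor–target junction and sequenced. Counts became CPM, averaged over replicates, scaled by control-derived factors and reported as log10(CPM+1).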
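Also: IS621 bridge recombinase in Escherichia coli cells against a fixed T5 target plasmid.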

Sequence	recombinant UMI read abundance (log10)
GGTCCAACATGGACCGGTTTTCCCGGTAATCCGTATTTGTA (site AGTCCAACTTA)	0.0127
GGTCCAACATGGACCGGTTTTCCCGGTAATCCGTATTTGTA (site CGTCCAACTTA)	0
GGTCCAACATGGACCGGTTTTCCCGGTAATCCGTATTTGTA (site GATCCAACTTA)	0.0069
GGTCCAACATGGACCGGTTTTCCCGGTAATCCGTATTTGTA (site GCTCCAACTTA)	0.00409
GGTCCAACATGGACCGGTTTTCCCGGTAATCCGTATTTGTA (site GGACCAACTTA)	0.00547
GGTCCAACATGGACCGGTTTTCCCGGTAATCCGTATTTGTA (site GGCCCAACTTA)	0.0162
GGTCCAACATGGACCGGTTTTCCCGGTAATCCGTATTTGTA (site GGGCCAACTTA)	0.00345
GGTCCAACATGGACCGGTTTTCCCGGTAATCCGTATTTGTA (site GGTACAACTTA)	0.00331
GGTCCAACATGGACCGGTTTTCCCGGTAATCCGTATTTGTA (site GGTCAAACTTA)	0.0208
GGTCCAACATGGACCGGTTTTCCCGGTAATCCGTATTTGTA (site GGTCCAACTAA)	0.0196
GGTCCAACATGGACCGGTTTTCCCGGTAATCCGTATTTGTA (site GGTCCAACTCA)	0.0175
GGTCCAACATGGACCGGTTTTCCCGGTAATCCGTATTTGTA (site GGTCCAACTGA)	0
GGTCCAACATGGACCGGTTTTCCCGGTAATCCGTATTTGTA (site GGTCCAACTTA)	0.431
GGTCCAACATGGACCGGTTTTCCCGGTAATCCGTATTTGTA (site GGTCCAACTTC)	0.0212
GGTCCAACATGGACCGGTTTTCCCGGTAATCCGTATTTGTA (site GGTCCAACTTG)	0.016
GGTCCAACATGGACCGGTTTTCCCGGTAATCCGTATTTGTA (site GGTCCAACTTT)	0.0114

Sequence	recombinant UMI read abundance (log10)
GGTCCAACATGGACCGGTTTTCCCGGTAATCCGTATTTGTA (site GGTCCACCTTA)	0.011
GGTCCAACATGGACCGGTTTTCCCGGTAATCCGTATTTGTA (site GGTCCAGCTTA)	0.015
GGTCCAACATGGACCGGTTTTCCCGGTAATCCGTATTTGTA (site GGTCCATCTTA)	0.583
GGTCCAACATGGACCGGTTTTCCCGGTAATCCGTATTTGTA (site GGTCCCACTTA)	0.00585
GGTCCAACATGGACCGGTTTTCCCGGTAATCCGTATTTGTA (site GGTCCGACTTA)	0.0188
GGTCCAACATGGACCGGTTTTCCCGGTAATCCGTATTTGTA (site GGTCCTACTTA)	0.00929
GGTCCAACATGGACCGGTTTTCCCGGTAATCCGTATTTGTA (site GGTCGAACTTA)	0.0172
GGTCCAACATGGACCGGTTTTCCCGGTAATCCGTATTTGTA (site GGTCTAACTTA)	0.00385
GGTCCAACATGGACCGGTTTTCCCGGTAATCCGTATTTGTA (site GGTGCAACTTA)	0.0122
GGTCCAACATGGACCGGTTTTCCCGGTAATCCGTATTTGTA (site GGTTCAACTTA)	0.0111
GGTCCAACATGGACCGGTTTTCCCGGTAATCCGTATTTGTA (site GTTCCAACTTA)	0.0101
GGTCCAACATGGACCGGTTTTCCCGGTAATCCGTATTTGTA (site TGTCCAACTTA)	0.00249
GGTCCAACATGGACCGGTTTTCCCGGTAATCCGTATTTGTG (site GGTCCAACTAA)	0.00832
GGTCCAACATGGACCGGTTTTCCCGGTAATCCGTATTTGTG (site GGTCCAACTCA)	0.00564
GGTCCAACATGGACCGGTTTTCCCGGTAATCCGTATTTGTG (site GGTCCAACTGA)	0
GGTCCAACATGGACCGGTTTTCCCGGTAATCCGTATTTGTG (site GGTCCAACTTA)	0.00906
